Measurements taken from article PMC12998938, “Neutrophil store-operated Ca^2+ entry: A correctable biomarker of cystic fibrosis lung disease progression” (Journal of cystic fibrosis : official journal of the …, 2025).

Tests used:
Orai3 = test: SOCE in triple knockout HEK293T cells transfected with Orai3; assay type: cell-based
Text: We hypothesized that inhibiting SOCE in CF neutrophils may reduce the secretion of neutrophil elastase and other proteins associated with CF lung disease. To validate ELD607’s specificity for Orai1 over Orai2 and Orai3, we first evaluated ELD607 function in HEK293T cells that had Orai1, Orai2 and Orai3 stably knocked out. […] Next we evaluated ELD607’s ability to inhibit SOCE in non-CF and CF neutrophils.
Supplemental figure 3. […] Dose responses of thapsigargin-induced changes in cytoplasmic Ca^2+ concentrations. These studies were performed in HEK293T where Orai1, Orai2 and Orai3 had been stably knocked down (triple knockout cells, TKO) or in TKO cells that were transiently transfected with Orai1, Orai2 or Orai3 as indicated. All data are from 7-9 replicates per data point from 3 separate experiments.

[1] = test system: Ca2+ influx in non-CF neutrophils; test: Fluo-4 Ca2+ influx across the plasma membrane, non-CF neutrophils; assay type: cell-based, human
Description: Isolated neutrophils were incubated with peptide or vehicle control for 3 h. For the final hour of treatment, cells were loaded with Fluo-4 direct (Thermofisher) for 45 min at 37°C and 15 min at room temperature as described.
Fig. 3. ELD607 inhibits SOCE in non-CF and CF neutrophils. (A) and (B) Mean changes in fluo-4 fluorescence as a marker of cytoplasmic Ca^2+ levels in non-CF and CF neutrophils respectively before and after stimulation with 1 μM thapsigargin (Tg). Before stimulation, neutrophils were exposed to vehicle (0.1% DMSO in PBS), 10 μM ELD607 or scrambled peptide (control) for 3 h. N = 10 non-CF and 21 CF donors. Stats show ELD607 vs vehicle or scrambled peptide based on color. (C-F) Isolation of ER Ca^2+ release vs Ca^2+ influx across the plasma membrane in non-CF and CF Neutrophils. Neutrophils were stimulated with thapsigargin (1 μM) in the absence of extracellular Ca^2+ to allow the release of Ca^2+ stores to be measured. Extracellular Ca^2+ was then returned so that extracellular Ca^2+ influx could be measured. (C) Mean fold change in Fluo-4 fluorescence during ER store release in non-CF and CF neutrophils. […] (E) Mean fold change in fluo-4 fluorescence during Ca^2+ influx in non-CF and CF neutrophils. […]
SOCE has 2 phases: release of Ca^2+ from ER stores and Ca^2+ influx from the extracellular space via Ca^2+ channels such as Orai1. […] Once the stores had emptied, extracellular Ca^2+ was reintroduced and Ca^2+ influx was measured (Fig. 3C–F).
Fluo-4 Ca^2+ assays. […] For global Ca^2+ measurements, baseline fluorescent readings were made for 2 min (1 read every 30 s) using a Tecan Infinite M1000 plate reader (ex 494 em 516 nm, bandwidth 5 nm) before thapsigargin (Sigma-Aldrich) was added and the change in emission was recorded for 10 min (1 read every 30 s). […] Baseline fluo-4 fluorescence was read for 2 min before cell were stimulated with thapsigargin (Tocris). Reads continued for ~5 min before 1.2 mM Ca^2+ was added to the extracellular solution and SOCE was measured for ~10 mins. For analysis, all fluo-4 fluorescence reads are normalized to baseline.

neutrophil elastase = conditions: cited from earlier work
non-CF neutrophils = test: Neutrophil degranulation multiplex assay, non-CF neutrophils; assay type: cell-based, human; conditions: 3 h, 1 μM thapsigargin 30 min, vs vehicle, paired t-test
Description: Neutrophils were immediately isolated by negative selection from deidentified blood samples using an EasySep human neutrophil isolation kit (Stem Cell Technologies) as described. Cytosolic Ca^2+ was measured using Fluo-4 as described. Protein lysate from isolated blood neutrophils was characterized by liquid chromatography with tandem mass spectrometry (LC-MS/MS) as described. Degranulation products in media were quantified by Luminex assay using a custom Bio-Plex human kit (BioRad) per the manufacturer’s protocol […]. Detailed methods for all experiments and measurements are provided in an online data supplement.
Multiple neutrophil functions, including neutrophil degranulation, are Ca^2+ dependent. Neutrophil degranulation results in an increase in several proteases in the lung, including neutrophil elastase, a key driver of CF lung damage. Accordingly, we investigated the impact of ELD607 on neutrophil degranulation as a marker of Ca^2+-dependent neutrophilic function. We used a multiplex assay to quantify key granule proteins released into media after a 3 h pretreatment with 10 μM ELD607 or vehicle control followed by a 30 min stimulation with 1 μM thapsigargin. Levels of myeloperoxidase (MPO; primary granules), lactoferrin (specific granules) and matrix metalloproteinase-9 (MMP9; tertiary granules) release were similar between non-CF and CF neutrophils (Fig. 4A–C).
Fig. 4. ELD607 inhibits degranulation in non-CF and CF neutrophils. Neutrophil degranulation (A-C) was assayed by measuring the concentration of representative constituents of (A) primary granules, MPO (non-CF, n = 9; CF, n = 13); (B) secondary granules, lactoferrin (non-CF, n = 12; CF, n = 17) and (C) tertiary granules, MMP-9 (non-CF, n = 9; CF, n = 12). […]
Multiplex assay. […] Supernatant was collected and analyzed for a panel of neutrophil granule proteins (MPO, lactoferrin, MMP9) using a Bio-Plex human kit (BioRad) per the manufacturer’s protocol. Plates were then analyzed using a Bio-Plex MAGPIX System (BioRad).

VHDIVNMLIRG [ELD607, size-optimized SPLUNC1/α6 peptidomimetic]
sensitivity of SOCE to ELD607 (Orai3; TKO + Orai3, thapsigargin, dose response, 7-9 replicates): relatively insensitive | specificity for Orai1: effect on Orai3 (Orai3; discussion summary of supplemental figure 3): little effect on Orai2 and Orai3 | attenuation of Ca2+ influx ([1]; non-CF neutrophils (Fig. 3)): markedly attenuated Ca^2+ influx | IC50 ([1]; non-CF, 3 h pre-treatment, 1 μM thapsigargin, extracellular Ca2+ (1.2 mM) returned, 2 donors in triplicate, vs CF p<0.0001): 340 nM | stability in neutrophil elastase (neutrophil elastase): protease-resistant and stable in CF patient-derived neutrophil elastase | MMP9 release (tertiary granules) (non-CF neutrophils; n = 9, 10 μM): significantly reduced | MPO release (primary granules) (non-CF neutrophils; n = 9, 10 μM): significantly reduced | lactoferrin release (specific/secondary granules) (non-CF neutrophils; n = 12, 10 μM): significantly reduced
